Results from PMC11979685, “Synthesis of Derivatives of the Antibiotic Albicidin: The N‐Terminal Fragment as Key to Control Potency and Resistance Mediated by the Binding Protein AlbA” (Chemistry (Weinheim an Der Bergstrasse, Germany), 2025).
Converted amounts (≈) assume the structure as drawn.

Tests used:
[1] = system: E. coli DSM 1116; assay: Qualitative growth inhibition assay in presence of AlbAS; type: cell-based, Escherichia coli
Protocol: Finally, we investigated if synthetic variations of building block A are able to evade the effects of the resistance protein AlbA. Therefore, we carried out a qualitative growth inhibition assay with derivatives 4–24 in presence of an equimolar amount of purified AlbAS. After incubation of the cultures overnight, the growth of the bacteria was evaluated. The ability of AlbAS to sufficiently sequester an albicidin derivative from the supernatant allowed E. coli cells to accumulate in a visible cell pellet. Second, we performed a quantitative transcription‐activation reporter assay[22] to assess transcriptional regulation by AlbAL. The promoter sequence pAlbA was inserted into a reporter vector that encodes the ilux luminescence cassette.[22] The luminescence signals elicited by ligand binding of synthetic variations to AlbAL was compared and normalized to the signal induced by 2nd Gen albicidin 2 and are hereby referred to as relative transcription activation (TA^%). The combination of both assays prompted us to categorize the experimental outcomes (Figure 4) in four groups:
Figure 4 Characterization of AlbA resistance against derivatives 2, 4–24. GIA: Qualitative growth inhibition assay against E. coli DSM 1116. (−): Derivative unable to inhibit the growth of E. coli in presence of AlbAS. (+): Derivative inhibits growth of E. coli in presence of AlbAS. […] For details see SI Figure 9. Transcription activation (TA) assay: luminescence elicited by 2nd Gen albicidin 2 from the TA assay was normalized to 100 % and the luminescence signal of tested derivatives provided: relative luminescence [%]=luminescence [derivative]/luminescence [2]×100 %. Green bars indicate low relative luminescence (<40 %) and red bars indicate high relative luminescence (>50 %). Error bars show the standard deviations of triplicate measurements. TEXT PRINTED IN THE PICTURE: 2: E. coli inhibition +AlbA: − | 4: E. coli inhibition +AlbA: + | 9: E. coli inhibition +AlbA: + | 11: E. coli inhibition +AlbA: + | 12: E. coli inhibition +AlbA: + | 13: E. coli inhibition +AlbA: ~ | 14: E. coli inhibition +AlbA: − | 16: E. coli inhibition +AlbA: − | 17: E. coli inhibition +AlbA: − | 18: E. coli inhibition +AlbA: − | 19: E. coli inhibition +AlbA: − | 20: E. coli inhibition +AlbA: + | 21: E. coli inhibition +AlbA: − | 22: E. coli inhibition +AlbA: − | 23: E. coli inhibition +AlbA: − | 24: E. coli inhibition +AlbA: − […]
1.3 Resistance assessment against AlbA
E. coli strain DSM 1116 was used for all susceptibility testing. E. coli BL21 Star (DE3) cells (Invitrogen) were used for protein expression. LB medium (Lysogeny broth: 10 g/L peptone, 5 g/L yeast extract, 5 g/L NaCl) was used as broth or in agar plates for all experiments. Incubation steps took place at 37°C and 180 rpm shaking if not stated otherwise. Throughout the study, 2nd Gen albicidin 2 was used as albicidin standard due to its better stability, availability and similar activity compared to natural albicidin in presence of resistance factors.[3,4]
AlbA expression and purification
N-terminally His-tagged AlbA was expressed using a pET28a vector as described previously.[5] In brief, E. coli BL21(DE3) cells were transformed with pET28-AlbA plasmid and grown in LB medium with kanamycin. LB broth supplemented with 50 µg/mL kanamycin was inoculated from over-night cultures and grown at 37°C until an OD600 of 0.6 was reached. After induction with 0.2 mM isopropyl β-D-1-thiogalactopyranoside (IPTG) the proteins were expressed at 18°C for 20 h. The cells were harvested by centrifugation (4,000 x G, 20 min), resuspended in lysis buffer (50 mM Tris, pH 8.0, 500 mM NaCl, 10% glycerol) and processed in a cell disruptor (Constant Systems Ltd) at 25 kPsi before centrifugation at 50,000 x G, at 4°C for 45 min. The lysate was incubated with Pure Cube Ni-NTA agarose (Cube Biotech, Germany) at 4°C for 20 min while shaking. The slurry was transferred to empty gravity-flow […]

[2] = Reverse-phase HPLC retention time as estimate of lipophilicity; type: physicochemical; settings: indicator of lipophilicity
Text: As mentioned before, albicidin 1 is a rather hydrophobic compound and improving its aqueous solubility is desirable. The lipophilicity of drug molecules is commonly characterized by the octanol/water partition coefficient (logP). An alternative approach relies on the correlation between lipophilicity and the retention time (Rt) on a reverse‐phase HPLC column.[31] This approach works well if structurally related compounds are compared as is the case for this SAR study. Rt was thus used to estimate the hydrophilicity of albicidin 1 and its derivatives 2–24 (Table 1).[32]

[3] = system: Mycobacterium phlei DSM 750; assay: MIC determination (broth microdilution); type: cell-based; settings: Mycolicibacterium phlei, DSM750; read-out: MIC M. phlei
Protocol: (§1) After completing the syntheses, the antibacterial activity of A‐variations 4–24 was assessed by determination of MIC values against a basic set of gram‐negative and gram‐positive bacteria (Table 1). The monocyclic derivatives 4–8 featuring a cyano‐, trifluoromethyl‐, methoxy‐ and fluoro‐ substituent in para‐position were very active against the gram–negative E. coli and S. typhimurium strains with MIC values in the same range as 3rd Gen albicidin 3 or ciprofloxacin which is the gold standard for gyrase inhibitors. […] These findings are in agreement with previous studies showing good activities for cyano, trifluoromethyl, methoxy and fluoro substituents in the para‐position of different aromatic rings in the building block A.[12, 13] The activity of the monocyclic derivatives 4–8 against the gram‐positive strains B. subtilis and M. luteus were similar but slightly less pronounced compared to the lead structure 3.
(§2) 1.1 Determination of Minimal Inhibitory Concentrations (MIC)
(§3) Minimal inhibitory concentration (MIC) against selected bacterial strains values were determined according to the ninth edition of the Approved Standard M07-A9.[1] 20 μL of cryo stocks of bacterial strains were suspended in 20 mL LB medium (Lysogeny broth: 10 g/L peptone, 5 g/L yeast extract, 5 g/L NaCl). Following incubation overnight at 37°C, 200 rpm, the test inoculum was adjusted by 0.5 McFarland Standard in cation adjusted Mueller-Hinton broth (BBLTM Mueller-Hinton Broth II, Becton, Dickinson and Company, New Jersey, USA) to approximately 1x10^6 CFU mL-1. 95 μL of the bacterial inoculum were applied per well of a 96-well plate. Albicidin and albicidin derivatives 3−24 were dissolved in DMSO (100%) to an initial concentration of 2560 μg/mL and serially diluted in DMSO (100%). Initial solution and serial dilutions of Ciprofloxacin were prepared in 0.1 N HCL, respectively. 5 μL of each antibiotic dilution were added to the microdilution tray to reach albicidin concentrations of 128 μg/mL to 0.016 μg/mL per well. One row of each well plate served as a growth control without antibiotic substances and another row of the microdilution tray served as sterility control (only MHB II - media). The antimicrobial effect of the solvent (DMSO) was tested by adding 5 μL DMSO to several wells. Purity check and cell titer control were performed according to International S tandard M07-A9 on Mueller-Hinton II Agar (Mueller Hinton II Broth, 15 g/L agar-agar). Both microdilution trays and agar plates were incubated at 30−37°C for 16 h and subsequently analyzed for growth inhibition by naked eye. The following primary panel of microorganisms were purchased from German Collection of Microorganisms and Cell Cultures (DSMZ):
(§4) Escherichia coli DSM 1116
(§5) Micrococcus luteus DSM 1790
(§6) Mycobacterium phlei DSM 750
(§7) Salmonella typhimurium TA100 was kindly provided by Prof. Dr. Vera Meyer (Technische Universität Berlin). […]
(§8) was purchased as part of the single gene knockout library of E. coli K12 BW25113 (Keio collection) from Horizon Discovery group plc (Cambridge, UK).

[4] = system: Bacillus subtilis DSM 10; assay: MIC determination (broth microdilution); type: cell-based; settings: DSM10, read-out: MIC B. sub.
Protocol: as §1, §2, §3, §4, §5, §6, §7, §8

[5] = system: Micrococcus luteus DSM 1790; assay: MIC determination (broth microdilution); type: cell-based; settings: DSM1790, read-out: MIC M. luteus
Protocol: as §1, §2, §3, §4, §5, §6, §7, §8

[6] = system: E. coli BW25113; assay: MIC determination (broth microdilution); type: cell-based; settings: Escherichia coli, BW25113; read-out: MIC E. coli BW25113
Protocol: as §1, §2, §3, §4, §5, §6, §7, §8

[7] = system: Salmonella typhimurium TA100; assay: MIC determination (broth microdilution); type: cell-based; settings: Salmonella enterica, read-out: MIC S. typh.
Protocol: as §1, §2, §3, §4, §5, §6, §7, §8

[8] = system: E. coli DSM1116; assay: MIC determination (broth microdilution); type: cell-based; settings: Escherichia coli, DSM1116; read-out: MIC E. coli DSM1116
Protocol: as §1, §2, §3, §4, §5, §6, §7, §8

[9] = target: E. coli DNA gyrase (Escherichia coli, UniProt P0AES4); assay: E. coli gyrase DNA cleavage assay; type: biochemical; set-up: key to Gyrase inhibition strong+ / weak −: + strong inhibition; − weak inhibition in comparison to compound 16; settings: for Gyrase inhibition strong+ / weak −: qualitative DNA cleavage assay at 1 μM and 10 μM, in comparison to compound 16
E. coli DNA gyrase, sequence (P0AES4 whole entry): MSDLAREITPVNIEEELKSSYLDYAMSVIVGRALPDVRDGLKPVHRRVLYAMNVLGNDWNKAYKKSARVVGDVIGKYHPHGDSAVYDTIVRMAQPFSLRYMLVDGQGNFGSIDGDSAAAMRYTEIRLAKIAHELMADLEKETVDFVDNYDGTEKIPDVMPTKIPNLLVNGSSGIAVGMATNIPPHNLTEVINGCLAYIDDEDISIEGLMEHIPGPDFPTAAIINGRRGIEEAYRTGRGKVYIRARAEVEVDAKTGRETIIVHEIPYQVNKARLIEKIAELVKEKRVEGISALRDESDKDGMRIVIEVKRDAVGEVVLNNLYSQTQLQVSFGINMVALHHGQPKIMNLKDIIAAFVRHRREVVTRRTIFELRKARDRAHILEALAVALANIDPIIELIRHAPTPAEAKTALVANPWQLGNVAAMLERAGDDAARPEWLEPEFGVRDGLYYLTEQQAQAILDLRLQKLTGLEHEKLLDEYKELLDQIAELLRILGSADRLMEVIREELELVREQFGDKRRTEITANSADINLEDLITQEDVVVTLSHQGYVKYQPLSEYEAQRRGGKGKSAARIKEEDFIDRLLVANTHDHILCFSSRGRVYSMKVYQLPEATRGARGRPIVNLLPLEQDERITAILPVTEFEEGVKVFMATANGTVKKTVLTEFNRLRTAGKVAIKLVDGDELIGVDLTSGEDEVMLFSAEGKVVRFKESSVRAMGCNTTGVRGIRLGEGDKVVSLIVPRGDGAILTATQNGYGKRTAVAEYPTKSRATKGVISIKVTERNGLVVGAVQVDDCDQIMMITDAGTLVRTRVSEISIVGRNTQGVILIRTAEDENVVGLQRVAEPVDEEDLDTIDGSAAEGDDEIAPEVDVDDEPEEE
Protocol: The target activity of the synthesized derivatives was investigated using a DNA cleavage assay with purified and enzymatically active E. coli DNA gyrase[8] (see SI). In this assay, albicidin‐stabilized complexes of gyrase and plasmid DNA are trapped, and subsequently denatured and deproteinated to reveal DNA linearized by gyrase. […] For the best performing compounds, which were able to fully stabilize the cleavage complex at a concentration of 1 μM, the concentrations at half‐maximum cleavage (CC50) were determined (Figure 3).
1.2 Escherichia coli Gyrase Cleavage Inhibition Assay
E. coli gyrase cleavage assays were executed by setting up a master mix including 0.25 µg relaxed plasmid (pBR322) in 35 mM Tris-HCl (pH 7.5), 24 mM KCl, 4 mM MgCl2, 2 mM dithithreitol (DTT), 1.8 mM spermidine, 1 mM ATP, 6.5% (wt/vol) glycerol and 0.1 mg/ml bovine serum albumin per reaction.
Of this stock solution, 13.2 µL was aliquoted for each reaction into 1.5 mL Eppendorf tubes and supplemented with 0.3 µL of the appropriate compound dilution or DMSO with a […] DMSO concentration of 2% per reaction. The reactions were started with 1.5 µL of 50 nM (pre-screening) or 40 nM (IC50 determinations) wt E. coli gyrase in dilution buffer (50 mM Tris-HCl (pH 7.5), 100 mM KCl, 2 mM DTT, 1 mM EDTA, and 50% (wt/vol) glycerol) for a […] volume of 15 µL. Reactions were incubated at 37°C for 30 minutes before addition of 1.5 µL 0.2% (wt/vol) SDS and 0.75 µL proteinase K (0.2 mg/mL) and further incubation at 37°C for 30 minutes to trap cleavage complexes. Reactions were stopped with 15 µL chloroform:isoamyl alcohol (24: 1 v/v) and 15 µL of STEB (40% (wt/vol) sucrose, […] Tris-Cl pH 8, 10 mM EDTA, 0.5 mg/mL bromophenol blue). After brief vortexing and centrifugation at 2,300g for 5 min, 15 µL of the aqueous phase was loaded onto 1% (wt/vol) agarose in TAE (Tris-acetate […] and EDTA […]) gels supplemented with 10 µg/mL ethidium bromide.
The gels were run at 85 V for 2 hours.
DNA was visualized (602/50, UV Trans, auto optimal exposure) with a ChemiDoc MP (Bio-Rad Laboratories Inc., equipped with ImageLab Touch Software v2.0.0.27) and the percentage of cleaved DNA relative to the total amount of DNA per lane was determined with ImageJ software.[2] IC50 curves were generated in GraphPad Prism (v10.0.0) using the non-linear regression curve fit variable slope with four parameters and least squares regression.

[10] = system: E. coli; assay: MIC against E. coli in presence of 50 % human serum; type: cell-based; settings: Escherichia coli; E. coli in presence of 50 % human serum; read-out: MICEc 50%HS

COc1c(NC(=O)c2ccc(NC(=O)c3ccc(NC(=O)[C@H](Cc4cn[nH]n4)NC(=O)c4ccc(NC(=O)/C(C)=C/c5ccc(O)cc5)cc4)cc3)c(OC)c2O)ccc(C(=O)O)c1O [compound 2, reference compound]
GIA: E. coli inhibition +AlbA ([1]; E. coli DSM 1116, 10 µM compound with equimolar AlbAS): −
bioactivity in presence of AlbAS (in words) ([1]; E. coli, equimolar purified AlbAS): deactivated

COc1c(NC(=O)c2ccc(NC(=O)c3ccc(NC(=O)[C@H](Cc4c[nH]nn4)NC(=O)c4ccc(NC(=O)c5ccc6cc(O)ccc6c5)cc4)cn3)c(OC)c2O)ccc(C(=O)O)c1O [compound 10]
Rt (retention time) [2]: 8.15 min
MIC [3]: 1 µg/mL (≈ 1.12 µM)
MIC [4]: 0.063 µg/mL (≈ 0.0703 µM)
MIC [5]: 0.031 µg/mL (≈ 0.0346 µM)
MIC [6]: ≤ 0.016 µg/mL
MIC [7]: ≤ 0.016 µg/mL
MIC [8]: 0.016 µg/mL (≈ 0.0179 µM)
CC50 ([9]; E. coli gyrase DNA cleavage, read-out: CC50 (concentration at half-maximum cleavage)): 78 nM
Gyrase inhibition strong+ / weak − [9]: +
MIC [10]: 2 µg/mL

COc1c(NC(=O)c2ccc(NC(=O)c3ccc(NC(=O)[C@H](Cc4c[nH]nn4)NC(=O)c4ccc(NC(=O)c5ccc(F)cn5)cc4)cn3)c(OC)c2O)ccc(C(=O)O)c1O [compound 7]
Rt (retention time) [2]: 8.29 min
MIC [3]: 2 µg/mL (≈ 2.36 µM)
MIC [4]: 0.125 µg/mL (≈ 0.147 µM)
MIC [5]: 0.125 µg/mL (≈ 0.147 µM)
MIC [6]: 0.031 µg/mL (≈ 0.0365 µM)
MIC [7]: ≤ 0.016 µg/mL
MIC [8]: 0.031 µg/mL (≈ 0.0365 µM)
Gyrase inhibition strong+ / weak − [9]: +
MIC [10]: 4 µg/mL

COc1c(NC(=O)c2ccc(NC(=O)c3ccc(NC(=O)[C@H](Cc4c[nH]nn4)NC(=O)c4ccc(NC(=O)c5ccc6nccnc6c5)cc4)cn3)c(OC)c2O)ccc(C(=O)O)c1O [compound 15]
Rt (retention time) [2]: 7.71 min
MIC [3]: 2 µg/mL (≈ 2.27 µM)
MIC [4]: 0.125 µg/mL (≈ 0.142 µM)
MIC [5]: 0.25 µg/mL (≈ 0.284 µM)
MIC [6]: 0.031 µg/mL (≈ 0.0352 µM)
MIC [8]: 0.031 µg/mL (≈ 0.0352 µM)
Gyrase inhibition strong+ / weak − [9]: +
